The source of these data is ChEMBL document CHEMBL3507680, “University of Dundee, Gates Library screen for HepG2 cell viability”.

Each structure is given as a SMILES string.

This data set in a line: Human HepG2 cell viability assay in 384 well format. It is filed as toxicity, cell-based. The arrangement: dose 125 nL, time 70.5 hour; concentration not given beside the values. The conditions noted are these: HepG2 cells, read-out: Inhibition.
As for `Cc1nc(-c2ccoc2)n(CC(=O)N(C)CC(C)C)c1C`, the cytotoxicity at 70.5 h was -4.77%.
Under `Cc1cc(CN(C)CCC(O)c2ccccc2)no1` (stereo not drawn) stands 1.83%; under `CN(C)c1cc(N2CCN(c3ccccn3)CC2)ncn1`, 22.1%.
As for `CC(=O)c1cc2ncc(C(=O)NC3CC3)cc2[nH]1`, the cytotoxicity at 70.5 h came to 16%.
In the case of `CC(=O)c1cc2ncc(C(=O)NC3CCCC3)cc2[nH]1`, the cytotoxicity at 70.5 h is -3.81%.
In the case of `CCCNC(=O)c1cn(C(C)(C)C)c2ncccc12`, the cytotoxicity at 70.5 h was -1.86%.
`CCOCCCNC(=O)c1cn(C(C)(C)C)c2ncccc12`: the cytotoxicity at 70.5 h stood at 20.9%.
With `CN(C)C(=O)c1cc(-c2ccncc2)[nH]n1` the figure was -4.19%; with `CNC(=O)c1cc(-c2ccccc2OC)[nH]n1`, -5.34%.
Take `CCN(CC)CCNC(=O)CCc1c(C)nn(-c2ccccc2Cl)c1C`: the cytotoxicity at 70.5 h was 16.4%.
`CC(C)(Oc1ccc(C(N)=O)cc1)C(=O)N(CCC#N)C1CC1`: the cytotoxicity at 70.5 h is -1.36%.
With `CN(CCC#N)C(=O)C(C)(C)Oc1ccc(C(N)=O)cc1` the figure was 20.4%; with `COc1ccc2[nH]c(C(=O)NCC3(N)CCCC3)cc2c1`, -7.33%.
For the molecule `COc1ccc2c(c1)CN(CC1CC1)C(=O)CCN2CC(C)(C)O`, the cytotoxicity at 70.5 h is 0.185%.
As for `CC(C)(C)CN1Cc2cc3c(cc2NCCC1=O)OCO3`, the cytotoxicity at 70.5 h stood at 23.7%.
On to `CCN1Cc2cc(OC)ccc2N(CC(C)(C)O)CCC1=O`, for which the cytotoxicity at 70.5 h was -13%.
Under `CC1(C)CNC(=O)CN(C(=O)COc2ccccc2)C1` stands -14.2%; under `CCN1CC(COc2ccccc2)Oc2ncccc2S1(=O)=O` (stereo not drawn), -3.66%.
In the case of `CCN1CC(COc2ccc(OC)cc2)Oc2ccncc2S1(=O)=O` (stereo not drawn), the cytotoxicity at 70.5 h was -0.442%.
With `CCN1CC(COC(C)(C)C)Oc2ccncc2S1(=O)=O` (stereo not drawn) the figure was -4.84%; with `CC(C)(C)OCC1CN(CC2CC2)S(=O)(=O)c2cnccc2O1` (stereo not drawn), -4.79%.
Consider `CCOC(=O)[C@H]1[C@@H](O)C(=O)N(C)C12CCN(C(=O)OC)CC2`, for which the cytotoxicity at 70.5 h is 7.43%.
Consider `CCOC(=O)[C@@H]1[C@@H](O)C(=O)N(C)C12CCN(C(=O)OC)CC2`, for which the cytotoxicity at 70.5 h was -10.2%.
For `O=C1c2cccnc2OC(CN2CCOCC2)CN1CC1CC1` (stereo not drawn), the cytotoxicity at 70.5 h was -1.18%.
Turning to `O=C1c2cccnc2OC(CN2CCOCC2)CN1C1CCC1` (stereo not drawn), the cytotoxicity at 70.5 h is -4.26%.
Consider `COCCN1C[C@H]2CCN(C(C)=O)CC[C@H]2S1(=O)=O`, for which the cytotoxicity at 70.5 h is 0.94%.
As for `Cc1nnc([C@@H]2C[C@H]3CN(C(=O)c4sccc4C)C[C@H]3O2)[nH]1`, the cytotoxicity at 70.5 h is -8.24%.
In the case of `CC(C)CN1C[C@H]2CCN(C(=O)C3CCCO3)CC[C@H]2S1(=O)=O` (stereo partly drawn), the cytotoxicity at 70.5 h is -8.39%.
Consider `CCN1C[C@H]2CCN(C(=O)C3CCCO3)CC[C@H]2S1(=O)=O` (stereo partly drawn), for which the cytotoxicity at 70.5 h is -7.09%.
With `CNC(=O)[C@H]1CC[C@@H]2[C@@H](CCN2C(=O)N(C)C)O1`, the cytotoxicity at 70.5 h is -5.62%.
On to `CN(C)CCN1CCc2ncc(CN(C)Cc3ccco3)n2CC1`, for which the cytotoxicity at 70.5 h stood at 30%.
On to `Cn1cc(-c2nc(C3CCN(S(C)(=O)=O)CC3)cc3c2ncn3C)cn1`, for which the cytotoxicity at 70.5 h is 23.5%.
With `CCN1CC2(CC1=O)CN(C(C)=O)CCN(S(=O)(=O)CC)C2` (stereo not drawn) the figure was -2.5%; with `Cn1cc(-c2nc(C3CCN(CC4CC4)CC3)cc3c2ncn3C)cn1`, -1.1%.
Under `CN(C)c1ccc2c(c1)CN(C(=O)c1ccnnc1)C2c1cnco1` (stereo not drawn) stands -13.8%; under `c1cc(CN2CCc3c(CN4CCCC4)n[nH]c3C2)ccn1`, 23.4%; under `C[C@H]1C[C@@H]2CCN(Cc3nccs3)C[C@H]2O1`, -9.2%.
As for `Cc1nnc(C[C@@H]2COC[C@H]3CN(C(=O)c4ccco4)C[C@@H]23)o1`, the cytotoxicity at 70.5 h is -9.01%.
Under `Cc1nnc(C[C@@H]2COC[C@H]3CN(C(=O)C4=CCCC4)C[C@@H]23)o1` stands -13.7%.
Take `Cc1cc(C(=O)N2CCCC3(COCCN(c4ccccc4)C3)C2)[nH]n1` (stereo not drawn): the cytotoxicity at 70.5 h is -10.7%.
In the case of `CCN1CC2(CC1=O)CN(C(C)=O)CCN(S(C)(=O)=O)C2` (stereo not drawn), the cytotoxicity at 70.5 h is -13.4%.
For `CC(C)Nc1nc2c(c(NC3CC3)n1)CN(C(=O)c1ccncc1)CC2`, the cytotoxicity at 70.5 h is 32.7%.
With `C[C@H]1C[C@H]2CN(C(=O)c3cccc4c3OCCO4)CC[C@H]2O1`, the cytotoxicity at 70.5 h stood at 32.2%.
As to `O=C(COC1CCCC1)N1CC[C@H]2OCC[C@@]2(COCC2CC2)C1`, the cytotoxicity at 70.5 h was -3.35%.
As for `CCOCC1CN(C(=O)[C@H]2CCCO2)Cc2nnn(CC3CC3)c21` (stereo partly drawn), the cytotoxicity at 70.5 h was -1.02%.
In the case of `CC(C)N1CCC(c2ccnc3c(C(=O)N4CCCC4)ncn23)CC1`, the cytotoxicity at 70.5 h is -3.82%.
On to `CCN1C(=O)CC(c2ccccc2)C12CCN(c1ncc(C)cn1)CC2` (stereo not drawn), for which the cytotoxicity at 70.5 h was -3.7%.
Under `CCN(C)C(=O)c1ncn2c(C3CCN(S(C)(=O)=O)CC3)ccnc12` stands -5.47%; under `CCN1C(=O)CC(c2cccnc2)C12CCN(c1ncc(F)cn1)CC2` (stereo not drawn), 1.09%.
With `O=C(c1ncn2c(C3CCN(CC4CC4)CC3)ccnc12)N1CCCC1` the figure was 0.745%; with `CC(=O)NCC(=O)N1CCc2nc(C)nc(C)c2CC1`, 5.59%; with `CCNC(=O)N1CCC2(CC1)CCn1c(-c3ccccc3)cnc12`, -3.37%.
Turning to `Cc1nnc([C@H]2C[C@H]3OCC[C@H]3N(S(=O)(=O)N(C)C)C2)o1`, the cytotoxicity at 70.5 h was -3.65%.
As for `O=C(Nc1cnccn1)[C@@H]1COC[C@H]2CN(c3ncc(F)cn3)C[C@H]21`, the cytotoxicity at 70.5 h is -4.35%.
Turning to `CC1CCN(c2ccc3c(-c4ncc(C(=O)O)s4)noc3c2)CC1`, the cytotoxicity at 70.5 h is -5.23%.
For the molecule `CCOC1CC2(CCN(c3cnccn3)CC2)c2ccccc21` (stereo not drawn), the cytotoxicity at 70.5 h is -4.37%.
Consider `Cn1cnc2c1C(C(=O)N1CCOCC1)N(C(=O)c1ccccc1)CC2` (stereo not drawn), for which the cytotoxicity at 70.5 h is -4.08%.
Regarding `Cc1nc(CN2CCc3nc(N4CCCC4)nc(NC(C)C)c3C2)cs1`, the cytotoxicity at 70.5 h was -3.99%.
On to `COC[C@H]1CCC[C@]12CN(S(=O)(=O)c1cccs1)CCO2`, for which the cytotoxicity at 70.5 h was -4.35%.
Take `Cc1ccsc1C(=O)N1CCC2(CC(C(=O)N(C)C(C)C)=NO2)C1` (stereo not drawn): the cytotoxicity at 70.5 h was -2.65%.
For the molecule `Cc1cccc(C(=O)N2CCC3(CC(C(=O)N(C)C(C)C)=NO3)C2)c1` (stereo not drawn), the cytotoxicity at 70.5 h is -3.14%.
With `COCC(=O)NCc1cc(=O)n2c(n1)CN(Cc1ccoc1)CCC2` the figure was 1.73%; with `Cc1nc(COC[C@H]2CC[C@H]3NCC[C@H]3O2)cs1`, -6.2%.
In the case of `NC(=O)N1CCc2cc(C(=O)O)c(-c3ccsc3)nc2CC1`, the cytotoxicity at 70.5 h was -6.4%.
Under `O=S(=O)(C1CC1)N1Cc2[nH]nc(COCC3CC3)c2C1` stands -6.81%; under `CN(Cc1cccs1)C1CCC[C@@H]2CN(C(N)=O)C[C@H]12` (stereo partly drawn), -10.5%; under `CCN1CCC2(CC1)C(=O)N(c1ccc(C)nc1)CCN2CC(C)C`, -3%.
`O=C(O)c1c(-c2ccoc2)ncc2c1CCN(C1CCOC1)C2` (stereo not drawn): the cytotoxicity at 70.5 h was -2.3%.
With `Cc1cc(CN2C[C@@H](C)[C@@]3(CCN(CC(=O)N(C)C)C3=O)C2)oc1C`, the cytotoxicity at 70.5 h was -4.41%.
As for `Cn1cc(CN2C[C@H]3CCC[C@@H](CNc4nccn4C)[C@H]3C2)cn1`, the cytotoxicity at 70.5 h was -3.76%.
`Cn1ccnc1NC[C@@H]1CCC[C@@H]2CN(CC3CC3)C[C@@H]21`: the cytotoxicity at 70.5 h is -9.55%.
Under `O=C(O)c1cc2c(nc1-c1ccsc1)CCN(C(=O)C1CC1)CC2` stands -7.32%; under `CC1CCCCN1C(=O)c1nc2c(n1C(C)C)CCN(C)C2` (stereo not drawn), -14%; under `CN(Cc1ccco1)Cc1cnc2n1CCN(S(C)(=O)=O)CC2`, 26.4%.
For the molecule `CCc1cnc(N2CC[C@H]3[C@@H]2CCC(=O)N3CC2CCOCC2)nc1`, the cytotoxicity at 70.5 h was determined as 20.9%.
Under `COCCN1CCC2(CCCN(C(=O)c3cncn3C)C2)CC1` stands -3.6%; under `CN1CCC2(CCN(c3ncc(F)cn3)CC2)C1=O`, -1.11%; under `Cc1cc(C(=O)N2CCC3(CC2)COCCN(c2cccnc2)C3)[nH]n1`, -3.67%.
Under `CN(C)C(=O)COC[C@@]12CCC[C@@H]1CN(C1CCC1)C2` stands -10.9%.
As for `C[C@@H]1C[C@H]2CN(Cc3nccs3)C[C@H]2O1`, the cytotoxicity at 70.5 h is -10.9%.
As to `CN(C)C(=O)COC[C@@]12CCC[C@@H]1CNC2`, the cytotoxicity at 70.5 h was -13.5%.
On to `CS(=O)(=O)N1CCOCC2(CCN(Cc3ccc[nH]3)CC2)C1`, for which the cytotoxicity at 70.5 h was -5.4%.
On to `Cc1nc(CN2CCC3(CC2)CC(=O)N(C)c2ccccc23)cs1`, for which the cytotoxicity at 70.5 h is -7.28%.
With `COCCN1CCO[C@H]2CCN(C(=O)c3cccs3)CC[C@@H]21` the figure was 5.33%.
For the molecule `Cc1noc([C@H]2C[C@H]3OCC[C@H]3N(C3CCC3)C2)n1`, the cytotoxicity at 70.5 h was found to be 24.7%.
As for `CN(C)c1nccc(N2CCO[C@H]3CN(Cc4nccn4C)C[C@H]32)n1`, the cytotoxicity at 70.5 h is -0.595%.
`CN1Cc2[nH]nc(COCC3CC3)c2C1`: the cytotoxicity at 70.5 h is -11.3%.
Consider `Cc1ccc(CN2CC[C@@H](NS(C)(=O)=O)[C@@H]2Cc2ccncc2)o1`, for which the cytotoxicity at 70.5 h is -10.7%.
In the case of `CN(C)C(=O)[C@H]1CC[C@@H]2[C@@H](CCN2Cc2ccccn2)O1`, the cytotoxicity at 70.5 h is 0.127%.
Turning to `CN(C)C(=O)[C@@H]1CC[C@@H]2[C@@H](CCN2Cc2ccccn2)O1`, the cytotoxicity at 70.5 h is -7.99%.
Take `c1coc(CN2CCC3(CC2)COCCN(CCN2CCCC2)C3)c1`: the cytotoxicity at 70.5 h was -0.522%.
Turning to `c1c[nH]c(CN2CCC3(CC2)COCCN(CCN2CCCC2)C3)c1`, the cytotoxicity at 70.5 h is -10.3%.
For `CCCN1CCc2c(C(=O)N(C)Cc3ccccn3)nn(C)c2C1`, the cytotoxicity at 70.5 h is -6.22%.
